Usually IC50 stands for the concentration that gives 50% inhibition. The low end stands for inhibition by little substance, the high end for a need for much substance.

In one assay the target is T1, Nav 1.7 (Homo sapiens (Human), UniProt Q15858). The assay can be described thus: in-vitro Nav 1.7 PX data. It counts as cell-based. The following applies: PatchXpress (PX), in vitro.
T1 sequence (Q15858 whole entry): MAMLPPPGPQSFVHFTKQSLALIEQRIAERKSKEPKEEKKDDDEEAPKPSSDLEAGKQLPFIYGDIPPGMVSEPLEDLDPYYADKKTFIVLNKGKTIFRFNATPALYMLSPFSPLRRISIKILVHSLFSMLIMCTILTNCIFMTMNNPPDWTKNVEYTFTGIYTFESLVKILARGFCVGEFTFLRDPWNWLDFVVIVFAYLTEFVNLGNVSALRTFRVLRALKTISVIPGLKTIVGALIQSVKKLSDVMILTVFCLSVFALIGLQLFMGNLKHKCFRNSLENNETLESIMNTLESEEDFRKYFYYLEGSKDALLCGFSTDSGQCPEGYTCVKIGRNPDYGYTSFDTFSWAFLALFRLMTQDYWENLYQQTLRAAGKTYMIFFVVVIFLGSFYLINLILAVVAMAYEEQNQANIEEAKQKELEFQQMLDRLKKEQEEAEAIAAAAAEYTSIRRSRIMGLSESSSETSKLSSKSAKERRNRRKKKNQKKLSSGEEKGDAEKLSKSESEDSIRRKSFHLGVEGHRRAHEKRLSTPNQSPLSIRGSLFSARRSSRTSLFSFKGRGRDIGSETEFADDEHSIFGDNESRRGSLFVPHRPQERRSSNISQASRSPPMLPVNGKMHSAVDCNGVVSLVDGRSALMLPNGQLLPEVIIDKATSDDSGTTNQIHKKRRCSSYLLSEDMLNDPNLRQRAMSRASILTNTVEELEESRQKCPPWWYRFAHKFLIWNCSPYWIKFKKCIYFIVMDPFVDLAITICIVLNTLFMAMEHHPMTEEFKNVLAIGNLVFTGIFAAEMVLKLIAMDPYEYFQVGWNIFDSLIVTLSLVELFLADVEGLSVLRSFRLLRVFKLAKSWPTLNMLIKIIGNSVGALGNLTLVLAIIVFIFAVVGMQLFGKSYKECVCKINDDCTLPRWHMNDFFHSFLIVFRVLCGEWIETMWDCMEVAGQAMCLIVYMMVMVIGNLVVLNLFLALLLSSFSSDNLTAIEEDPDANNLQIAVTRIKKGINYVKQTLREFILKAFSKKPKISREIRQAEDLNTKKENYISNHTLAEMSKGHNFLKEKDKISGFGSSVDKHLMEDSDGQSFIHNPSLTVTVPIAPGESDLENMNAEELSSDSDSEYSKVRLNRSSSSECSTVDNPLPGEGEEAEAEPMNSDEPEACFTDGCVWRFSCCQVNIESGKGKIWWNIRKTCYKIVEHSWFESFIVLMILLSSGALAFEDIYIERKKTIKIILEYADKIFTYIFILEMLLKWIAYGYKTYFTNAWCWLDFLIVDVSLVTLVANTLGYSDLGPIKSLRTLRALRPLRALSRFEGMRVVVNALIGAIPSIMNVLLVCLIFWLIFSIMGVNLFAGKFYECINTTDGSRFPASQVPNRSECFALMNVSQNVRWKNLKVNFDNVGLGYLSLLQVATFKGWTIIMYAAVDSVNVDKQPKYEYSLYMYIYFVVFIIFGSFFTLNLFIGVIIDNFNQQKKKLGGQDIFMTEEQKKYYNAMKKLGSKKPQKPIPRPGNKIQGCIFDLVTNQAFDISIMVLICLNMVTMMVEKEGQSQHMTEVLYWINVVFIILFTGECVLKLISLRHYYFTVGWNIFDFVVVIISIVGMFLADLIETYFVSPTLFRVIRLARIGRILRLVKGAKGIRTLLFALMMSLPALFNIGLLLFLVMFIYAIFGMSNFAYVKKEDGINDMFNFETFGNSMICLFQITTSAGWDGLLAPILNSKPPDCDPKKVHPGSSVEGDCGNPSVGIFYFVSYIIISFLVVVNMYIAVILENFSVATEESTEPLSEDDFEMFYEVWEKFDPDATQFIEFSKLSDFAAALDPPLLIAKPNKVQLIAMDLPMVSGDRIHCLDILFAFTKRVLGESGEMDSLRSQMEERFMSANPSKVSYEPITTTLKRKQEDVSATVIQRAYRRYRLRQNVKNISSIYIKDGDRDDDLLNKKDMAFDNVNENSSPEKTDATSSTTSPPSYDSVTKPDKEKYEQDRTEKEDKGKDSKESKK
As to `COc1cc(-c2cc(F)cc(F)c2)c(F)cc1-c1nccc2cc(S(=O)(=O)Nc3ccon3)ccc12` [Example 98, N-3-isoxazolyl-1-(2,3′,5′-trifluoro-5-methoxy-4-biphenylyl)-6-isoquinolinesulfonamide], half-maximal inhibition (IC50) was put at 34.5 nM.

On to `COc1cc(-c2ccc(Cl)c(F)c2)c(F)cc1-c1nccc2cc(S(=O)(=O)Nc3ccon3)ccc12` [Example 95, 1-(4′-chloro-2,3′-difluoro-5-methoxy-4-biphenylyl)-N-3-isoxazolyl-6-isoquinolinesulfonamide], for which the IC50 amounted to 69 nM.

In turn, `COc1nc(OC2CCCCC2)ccc1-c1nccc2cc(S(=O)(=O)Nc3ccncn3)ccc12` [Example 65, 1-(6-(cyclohexyloxy)-2-methoxy-3-pyridinyl)-N-4-pyrimidinyl-6-isoquinolinesulfonamide] came in with an IC50 of 1730 nM.

Turning to `COc1cc(-c2ccc(C)c(Cl)c2)c(F)cc1-c1nccc2cc(S(=O)(=O)Nc3ccon3)ccc12` [Example 91, 1-(3′-chloro-2-fluoro-5-methoxy-4′-methyl-4-biphenylyl)-N-3-isoxazolyl-6-isoquinolinesulfonamide], inhibition was half-maximal at 101 nM (IC50).

In turn, `COc1ccc(-c2nccc3cc(S(=O)(=O)Nc4ccncn4)ccc23)c(NCC(C)(C)C)n1` [Example 70, 1-(2-((2,2-dimethylpropyl)amino)-6-methoxy-3-pyridinyl)-N-4-pyrimidinyl-6-isoquinolinesulfonamide] registered an IC50 of 2510 nM.

Staying with this assay, now noted: in-vitro Nav 1.7 PX data.
In the case of `COc1cc(C#N)c(-c2cc(F)cc(F)c2)cc1-c1nccc2cc(S(=O)(=O)Nc3nncs3)ccc12` [Example 150, 1-(6-cyano-3′,5′-difluoro-4-methoxy-3-biphenylyl)-N-1,3,4-thiadiazol-2-yl-6-isoquinolinesulfonamide], the IC50 is 6000 nM. In other words, the single-digit micromolar range.

Consider `Cc1ccc(Oc2ccccn2)cc1-c1nccc2cc(S(=O)(=O)Nc3ccncn3)ccc12` [Example 40, 1-(2-METHYL-5-(PYRIDIN-2-YLOXY)PHENYL)-N-(PYRIMIDIN-4-YL)ISOQUINOLINE-6-SULFONAMIDE], for which the IC50 worked out at 5690 nM.

Regarding `COc1cc(-c2nccc3cc(S(=O)(=O)Nc4ccon4)ccc23)c(C)cc1-c1cccc(F)c1` [Example 167, 1-(3′-fluoro-2-methoxy-5-methyl-4-biphenylyl)-N-3-isoxazolyl-6-isoquinolinesulfonamide], the IC50 was 2720 nM. Compared with the last compound, the IC50 is about 2.1-fold lower.

Still in this assay, the particulars now being: in-vitro PX.
`COc1cc(-c2ccc(Cl)c(C)c2)c(Cl)cc1-c1ncnc2cc(S(=O)(=O)Nc3ccon3)ccc12` [Example 204, 4-(2,4′-dichloro-5-methoxy-3′-methyl-4-biphenylyl)-N-3-isoxazolyl-7-quinazolinesulfonamide] had an IC50 of 21.8 nM.

On to `COc1nc(Cl)c(Cl)cc1-c1nccc2cc(S(=O)(=O)Nc3nncs3)ccc12` [Example 240, 1-(5,6-dichloro-2-methoxy-3-pyridinyl)-N-1,3,4-thiadiazol-2-yl-6-isoquinolinesulfonamide], for which the midpoint of inhibition, the IC50, lay at 1870 nM.

Consider `COc1cc(-c2cccc(F)c2)c(Cl)cc1-c1ncnc2cc(S(=O)(=O)Nc3cnsn3)ccc12` [Example 207, 4-(2-chloro-3′-fluoro-5-methoxy-4-biphenylyl)-N-1,2,5-thiadiazol-3-yl-7-quinazolinesulfonamide], for which the IC50 was 51.5 nM.

As for `COc1cc(-c2cccc(F)c2)ccc1C1c2ccc(S(=O)(=O)Nc3nncs3)cc2CCN1C(C)=O` (stereo not shown) [Example 52, 2-ACETYL-1-(3′-FLUORO-3-METHOXY-[1,1′-BIPHENYL]-4-YL)-N-(1,3,4-THIADIAZOL-2-YL)-1,2,3,4-TETRAHYDROISOQUINOLINE-6-SULFONAMIDE], inhibition was half-maximal at 1690 nM (IC50).

Still in this assay, the particulars now being: in-vitro PX (PatchXpress) data.
The compound `COc1cc(-c2ncnc3cc(S(=O)(=O)Nc4ccon4)ccc23)c(C)cc1-c1ccc(Cl)c(C)c1` [Example 34] showed an IC50 of 2610 nM.

In turn, `COc1cc(-c2cccnc2OC(F)F)ccc1-c1nccc2cc(S(=O)(=O)Nc3nncs3)ccc12` [Example 193, 1-(4-(2-(difluoromethoxy)-3-pyridinyl)-2-methoxyphenyl)-N-1,3,4-thiadiazol-2-yl-6-isoquinolinesulfonamide] had an IC50 of 871 nM. This IC50 is about 3-fold lower than that of the compound before.

In turn, `O=S(=O)(Nc1nncs1)c1ccc2c(-c3ccc(C(F)(F)F)cc3C3CC3)ncnc2c1` [Example 192, 4-(2-cyclopropyl-4-(trifluoromethyl)phenyl)-N-1,3,4-thiadiazol-2-yl-7-quinazolinesulfonamide] had an IC50 of 4940 nM.

For the compound `COc1cc(Oc2cc(C)cc(F)c2)ccc1-c1nccc2cc(S(=O)(=O)Nc3nncs3)ccc12` [Example 32, 1-(4-(3-FLUORO-5-METHYLPHENOXY)-2-METHOXYPHENYL)-N-(1,3,4-THIADIAZOL-2-YL)ISOQUINOLINE-6-SULFONAMIDE], the midpoint of inhibition, the IC50, lay at 129 nM.

Still in this assay, the particulars now being: in-vitro PX data.
Consider `COc1cc(-c2cc(F)cc(F)c2)ccc1-c1nccc2cc(S(=O)(=O)Nc3ccno3)ccc12` [Example 128, 1-(3′,5′-difluoro-3-methoxy-4-biphenylyl)-N-5-isoxazolyl-6-isoquinolinesulfonamide], for which it took 3510 nM to reach half-maximal inhibition (IC50).

As to `Cn1nccc1-c1cc(-c2cc(F)cc(F)c2)ccc1-c1nccc2cc(S(=O)(=O)Nc3ccon3)ccc12` [Example 4, 1-(3′,5′-DIFLUORO-3-(1-METHYL-1H-PYRAZOL-5-YL)-[1,1′-BIPHENYL]-4-YL)-N-(ISOXAZOL-3-YL)ISOQUINOLINE-6-SULFONAMIDE 2,2,2-TRIFLUOROACETATE], the IC50 amounted to 148 nM. This IC50 lies about 24-fold lower than the previous one.

For `COc1cc(-c2ccc(Cl)c(C)c2)c(F)cc1-c1ncnc2cc(S(=O)(=O)Nc3ccon3)ccc12` [Example 103, 4-(4′-chloro-2-fluoro-5-methoxy-3′-methyl-4-biphenylyl)-N-3-isoxazolyl-7-quinazolinesulfonamide], the half-maximal inhibitory concentration (IC50) is 24 nM. This IC50 is about 6.2-fold lower than that of the compound before.

`COc1cc(-c2cc(F)cc(F)c2)ccc1-c1nccc2cc(S(=O)(=O)NC(C)=O)ccc12` [Example 136, N-((1-(3′,5′-difluoro-3-methoxy-4-biphenylyl)-6-isoquinolinyl)sulfonyl)acetamide] registered an IC50 of 11200 nM.

Another assay addresses T1, Nav 1.7. The assay can be described thus: Nav 1.7 in vitro PX assay (PatchXpress whole cell voltage clamp).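 Note: holding potential set for 20 to 50% inactivation, sodium current evoked by a 20 ms step to −10 mV, peak current inhibition read after compound exposure, 3–5 cells per concentration.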 Format: cell-based.
Details: not given
`COc1cc(C(F)(F)F)ccc1C1c2ccc(S(=O)(=O)Nc3ncns3)cc2CCN1C(C)=O` (stereo not shown) [Example 51, 2-ACETYL-1-(2-METHOXY-4-(TRIFLUOROMETHYL)PHENYL)-N-(1,2,4-THIADIAZOL-5-YL)-1,2,3,4-TETRAHYDROISOQUINOLINE-6-SULFONAMIDE] registered an IC50 of 225 nM. In other words, the sub-micromolar range.

`COc1cc(-c2ccc(F)c(Cl)c2)c(Cl)cc1-c1ncnc2cc(S(=O)(=O)Nc3ncccn3)ccc12` [Example 329, 4-(2,3′-dichloro-4′-fluoro-5-methoxy-[1,1′-biphenyl]-4-yl)-N-(pyrimidin-2-yl)quinazoline-7-sulfonamide]: the IC50 is 43 nM. This IC50 lies about 5.2-fold lower than the previous one.

Still in this assay, the particulars now being: HEK 293 cells stably transfected with human Nav1.7; PatchXpress; partially inactivated state.
For the compound `COc1cc(F)cc(-c2cc(OC)c(-c3ncnc4cc(S(=O)(=O)Nc5ccon5)ccc34)cc2C)c1` [Example 560, 4-(3′-fluoro-5,5′-dimethoxy-2-methyl-4-biphenylyl)-N-3-isoxazolyl-7-quinazolinesulfonamide], inhibition was half-maximal at 35 nM (IC50).

In the case of `COc1cc(-c2cccc(F)c2)c(Cl)cc1-c1ncnc2cc(S(=O)(=O)Nc3ccc(F)cn3)ccc12` [Example 479], the IC50 was 221 nM.

Regarding `COc1cc(-c2cccc(F)c2)c(Cl)cc1-c1c(OC)cnc2cc(S(=O)(=O)Nc3ccon3)ccc12` (atropisomer, axis not shown; (P)) [Example 340, (P)-4-(2-chloro-3′-fluoro-5-methoxy-[1,1′-biphenyl]-4-yl)-N-(isoxazol-3-yl)-3-methoxyquinoline-7-sulfonamide], the IC50 was 84 nM. Against the preceding compound, the IC50 is about 2.6-fold lower.

On to `COc1cc(-c2ccc(C(F)(F)F)cc2)c(F)cc1-c1nccc2cc(S(=O)(=O)Nc3ccon3)ccc12` [Example 539, 1-(2-fluoro-5-methoxy-4′-(trifluoromethyl)-4-biphenylyl)-N-3-isoxazolyl-6-isoquinolinesulfonamide], for which it took 237 nM to reach half-maximal inhibition (IC50).

In turn, `COc1cc(-c2cccc(Cl)c2)c(C)cc1-c1ncnc2cc(S(=O)(=O)Nc3ncccn3)ccc12` [Example 440, 4-(3′-CHLORO-5-METHOXY-2-METHYL-[1,1′-BIPHENYL]-4-YL)-N-(PYRIMIDIN-2-YL)QUINAZOLINE-7-SULFONAMIDE] registered an IC50 of 65 nM.

For the compound `COc1cc(-c2cc(F)cc(F)c2)c(C)cc1-c1ncnc2cc(S(=O)(=O)Nc3ncccn3)ccc12` [Example 438, 4-(3′,5′-DIFLUORO-5-METHOXY-2-METHYL-[1,1′-BIPHENYL]-4-YL)-N-(PYRIMIDIN-2-YL)QUINAZOLINE-7-SULFONAMIDE], the IC50 stood at 94 nM.

Regarding `COc1cc(-c2c(F)cccc2F)c(C)cc1-c1ncnc2cc(S(=O)(=O)Nc3ccon3)ccc12` [Example 565, 4-(2′,6′-difluoro-5-methoxy-2-methyl-4-biphenylyl)-N-3-isoxazolyl-7-quinazolinesulfonamide], the IC50 worked out at 199 nM.

With `COc1cc(-c2cccc(F)c2)ccc1-c1c(=O)n(C)cc2cc(S(=O)(=O)Nc3ccon3)ccc12` [Example 589, 4-(3′-fluoro-3-methoxy-4-biphenylyl)-N-3-isoxazolyl-2-methyl-3-oxo-2,3-dihydro-7-isoquinolinesulfonamide], half-maximal inhibition (IC50) was put at 533 nM.

Staying with this assay, now noted: PatchXpress (PX).
Take `COc1cc(-c2cccc(F)c2)ccc1[C@@H]1c2ccc(S(=O)(=O)Nc3ccon3)cc2CCN1C(C)=O` [Example 53-A, (S)-2-ACETYL-1-(3′-FLUORO-3-METHOXY-[1,1′-BIPHENYL]-4-YL)-N-(ISOXAZOL-3-YL)-1,2,3,4-TETRAHYDROISOQUINOLINE-6-SULFONAMIDE]: the IC50 was determined as 1090 nM.

Compound `COc1cc(-c2cccc(Cl)c2)c(C)cc1-c1nccc2cc(S(=O)(=O)Nc3ccon3)ccc12` [Example 277, 1-(3′-chloro-5-methoxy-2-methyl-4-biphenylyl)-N-3-isoxazolyl-6-isoquinolinesulfonamide] showed an IC50 of 40 nM.

For the compound `COc1cc(-c2cc(C)cc(F)c2)c(C)cc1-c1ncnc2cc(S(=O)(=O)Nc3ccon3)ccc12` [Example 260, 4-(3′-fluoro-5-methoxy-2,5′-dimethyl-4-biphenylyl)-N-3-isoxazolyl-7-quinazolinesulfonamide], inhibition was half-maximal at 36.7 nM (IC50). This IC50 and that of the compound before are within 1.5-fold of each other.

`COc1cc(C(F)F)c(C)cc1-c1nccc2cc(S(=O)(=O)Nc3ccon3)ccc12` [Example 250, 1-(4-(difluoromethyl)-2-methoxy-5-methylphenyl)-N-3-isoxazolyl-6-isoquinolinesulfonamide]: the IC50 came to 728 nM.

The record behind these values is US9776995B2, “Bicyclic sulfonamide compounds as sodium channel inhibitors” (AMGEN INC., priority 2013, dated 2017).
